Assay results from patent US20160008298A1, “XANTHOHUMOL-BASED COMPOUNDS AND COMPOSITIONS THEREOF, AND METHODS OF MAKING AND USING THE SAME” (Oregon State University, priority 2014, published 2016).
“And” between values parts separate entries of the source, which are not always exact repeats. Equal values may be shown once.

Columns and labels:
C2C12 cells = experiment: MTT cell viability assay; type: cell-based, mouse; details: for cell viability after one hour of exposure: C2C12, 1 hour, up to 50 μM; for concentration at which cell viability was decreased: C2C12, 24 hours of exposure
Procedure: Mouse C2C12 skeletal muscle myoblasts (purchased from ATCC, Manassas, Va., USA) were first seeded in 75 cm2 flasks using a culture medium consisting of DMEM (Life Technologies, Grand Island, N.Y., USA), 10% fetal bovine serum (FBS; Atlanta Biologicals, Lawrenceville, Ga., USA), high glucose, L-glutamine, phenol red, 1 mM sodium pyruvate and 100 units/mL penicillin, 100 μg/mL streptomycin. The C2C12 cells were incubated at 37° C. in a humidified atmosphere of 5% CO2 until they were confluent. Then, they were obtained by trypsinization and seeded at a specific density in the plates of choice depending on the experiment.
For cell viability experiments (MTT assay), C2C12 cells were plated in 96-well plates at a density of 4,000 cells per well in 200 μL of growth medium (identical to the culture medium). After 48 hours of incubation, the medium was removed and the cells were treated with fresh solutions of various concentrations of XN, DXN or TXN in phenol red-free growth medium. The final concentrations of XN, DXN, TXN were 1, 2, 5, 8, 10, 25, 50 μM, all in quadruplicate wells, in the 96-well plates. The medium used consists of phenol red free DMEM (Life Technologies, Grand Island, N.Y., USA), 10% FBS, 1% glutamine, 1 mM of sodium pyruvate and 100 units/mL penicillin, 100 μg/mL streptomycin. The plates were then incubated for 24 hours or 1 hour. After removing the medium, the cells were treated with 0.5 mg/mL solution of MTT 3-(4,5-dimethylthiazol-2-yl)-2,5-diphenyltetrazolium bromide in phenol red-free growth medium and incubated for two hours. After removing the medium and adding a solution of acidified isopropanol to each well, the absorbance of each well was measured at 570 nm by using a spectrometer (SpectraMax 190).
Two MTT assays were conducted (FIGS. 11A and 11B): after one hour and 24 hours of exposure.

C2C12 mouse myocytes = experiment: Cellular uptake by LC-MS/MS; type: in vitro ADME; details: 5 μM, one hour
Procedure: Cellular uptake investigations were performed using C2C12 mouse myocytes. Cells were cultured in 75 cm2 flasks using Dulbecco's Modified Eagle Medium (DMEM) obtained from Sigma-Aldrich, which was supplemented with 10% Fetal Bovine serum (FBS) and 1% penicillin/streptomycin solution (PS). Cultures were maintained in an incubator at 37° C. and 5% CO2.
Uptake comparisons were conducted by seeding three 12-well plates with 1 mL of C2C12 cells in suspension with a density of 100,000 cells/mL, which were then incubated until confluent. Four treatment groups were compared, including XN, DXN, TXN and a no compound control. Each compound was tested in quadruplicate in the presence of cells and in medium not exposed to cells. Medium not exposed to cells was examined for compound concentration to help account for protein binding in medium. Confluent cells were subsequently treated with fresh DMEM containing 1% FBS, 1% PS, as well as 5 μM XN, DXN, or TXN and incubated at 37° C. and 5% CO2 for one hour. Following incubation, cell medium was collected and the cells were washed once using Hanks Balanced Salt Solution (HBSS). HBSS was then aspirated, and 0.5 mL of cell extraction buffer (50% methanol:ethanol, v:v) was added to each well and the plates were covered with a plastic adhesive plate cover. The plates were placed in a freezer and maintained at −80° C. for 24 hours. After freezing, the plates were removed from the freezer and the cells were removed from the wells using a cell scraper and collected. An additional 0.5 mL of extraction buffer was added to each well as a rinse, which was collected and added to the cell extracts. […]
All cell culture samples were analyzed by LC-MS/MS using an Applied Biosystems API 4000 Q-trap triple quadrupole mass spectrometer. […] Once concentrations could be determined, mass balance of XN, DXN or TXN was calculated based on the average total volume of the sample, approximately 0.995 mL for cell medium, and 0.75 mL for cellular extracts.

C57BL6/J mice = experiment: Intraperitoneal glucose tolerance test in high-fat fed mice; type: in vivo, mouse; details: for insulin sensitivity in the GTT compared to control (vehicle-diet) mice: 30 mg/kg body weight/day, weeks 4 and 11; for Mean Plasma Glucose Level 0 Min: 30 mg/kg/day in high fat diet, 6 h fast, before glucose injection; for Mean Plasma Glucose Level 15 min / Mean Plasma Glucose Level 30 min / Mean Plasma Glucose Level 60 min / Mean Plasma Glucose Level 120 min / peak glucose level (group average) / time at which peak glucose level was reached / peak glucose level / time at which peak glucose level occurred: 30 mg/kg/day; for Mean Plasma Glucose Level 15 min / Mean Plasma Glucose Level 30 min / Mean Plasma Glucose Level 60 min / Mean Plasma Glucose Level 120 min: after 2 g/kg glucose i.p.; for peak glucose level (group average) / time at which peak glucose level was reached: Week 4 glucose tolerance test; for peak glucose level / time at which peak glucose level occurred: Week 11 glucose tolerance test
Procedure: The total number of C57BL6/J mice was 48, with 12 mice belonging to each of 4 treatment groups. Duration of the feeding was 14 weeks. Mouse feed contained high fat content (60% of kCal), and was supplemented with XN, DXN, or TXN in the treatment groups. XN, DXN and TXN content within the mouse diet were designed to deliver a dose of 30 mg/kg/day body weight. Food intake was measured three times per week by weighing the food pellet before placement in the cage, and at the time of feed changing by weighing uneaten food. Mice were unrestricted in dietary intake, being allowed to eat as much food as desired. Mice were weighed once per week. Groups included low dose (30 mg/kg) XN, DXN, TXN and no supplement control. Mice were maintained in accordance with the Oregon State University Institutional Animal Care and Use Committee (IACUC) regulations. One mouse was maintained on a standard AIN-93M chow diet to be used as a healthy reference during glucose tolerance assays.
Glucose tolerance tests were conducted during week 4 and week 11 of the feeding trial. Five mice from each treatment group were used in each glucose tolerance assay. Mice were fasted for 6 hours prior to baseline blood glucose testing. Blood was collected from the mice by tail puncture, and glucose measurements were taken using a One Touch UltraMini (LifeScan, Inc.) glucometer. Mice were weighed and then given an intraperitoneal (IP) injection of glucose equal to 2 g/kg body weight.

SMILES: COc1cc(O)c(CC=C(C)C)c(O)c1C(=O)CCc1ccc(O)cc1 [DXN, α,β-dihydroxanthohumol]
- cell viability after one hour of exposure (C2C12 cells): did not significantly affect cell viability
- concentration at which cell viability was decreased (C2C12 cells): 8 µM
- cellular uptake (of total amount of compound applied to cells) (C2C12 mouse myocytes): 7.8%
- insulin sensitivity in the GTT compared to control (vehicle-diet) mice (C57BL6/J mice): improved insulin sensitivity
- Mean Plasma Glucose Level 0 Min (C57BL6/J mice; Week 4): 297.6 (±6.6) mg/dL
- Mean Plasma Glucose Level 15 min (C57BL6/J mice; Week 4): 396.4 (±55.9) mg/dL
- Mean Plasma Glucose Level 30 min (C57BL6/J mice; Week 4): 423.0 (±76.3) mg/dL
- Mean Plasma Glucose Level 60 min (C57BL6/J mice; Week 4): 342.8 (±70.4) mg/dL
- Mean Plasma Glucose Level 120 min (C57BL6/J mice; Week 4): 176.2 (±40.0) mg/dL
- peak glucose level (group average) (C57BL6/J mice): 423.0 mg/dL and 407.2 mg/dL
- time at which peak glucose level was reached (C57BL6/J mice): 30 min
- Mean Plasma Glucose Level 0 Min (C57BL6/J mice; Week 11): 249.8 (±22.1) mg/dL
- Mean Plasma Glucose Level 15 min (C57BL6/J mice; Week 11): 474.4 (±46.0) mg/dL
- Mean Plasma Glucose Level 30 min (C57BL6/J mice; Week 11): 508.0 (±41.2) mg/dL
- Mean Plasma Glucose Level 60 min (C57BL6/J mice; Week 11): 494.8 (±38.9) mg/dL
- Mean Plasma Glucose Level 120 min (C57BL6/J mice; Week 11): 298.8 mg/dL and 298.8 (±45.5) mg/dL
- peak glucose level (C57BL6/J mice): 508.0 mg/dL
- time at which peak glucose level occurred (C57BL6/J mice): 30 min

SMILES: COc1cc(O)c(CCC(C)C)c(O)c1C(=O)CCc1ccc(O)cc1 [TXN, tetrahydroxanthohumol]
- cell viability after one hour of exposure (C2C12 cells): did not significantly affect cell viability
- concentration at which cell viability was decreased (C2C12 cells): 25 µM
- cellular uptake (of total amount of compound applied to cells) (C2C12 mouse myocytes): 6.9%
- insulin sensitivity in the GTT compared to control (vehicle-diet) mice (C57BL6/J mice): improved insulin sensitivity
- Mean Plasma Glucose Level 0 Min (C57BL6/J mice; Week 4): 193.6 (±17.9) mg/dL
- Mean Plasma Glucose Level 15 min (C57BL6/J mice; Week 4): 407.2 (±38.1) mg/dL
- Mean Plasma Glucose Level 30 min (C57BL6/J mice; Week 4): 394.6 (±50.1) mg/dL
- Mean Plasma Glucose Level 60 min (C57BL6/J mice; Week 4): 235.8 (±21.9) mg/dL
- Mean Plasma Glucose Level 120 min (C57BL6/J mice; Week 4): 149.0 (±15.3) mg/dL
- peak glucose level (group average) (C57BL6/J mice): 407.2 mg/dL and 423.0 mg/dL
- time at which peak glucose level was reached (C57BL6/J mice): 15 min
- Mean Plasma Glucose Level 0 Min (C57BL6/J mice; Week 11): 245.0 (±17.8) mg/dL
- Mean Plasma Glucose Level 15 min (C57BL6/J mice; Week 11): 408.0 (±29.8) mg/dL
- Mean Plasma Glucose Level 30 min (C57BL6/J mice; Week 11): 513.6 (±37.6) mg/dL
- Mean Plasma Glucose Level 60 min (C57BL6/J mice; Week 11): 450.8 (±5.0) mg/dL
- Mean Plasma Glucose Level 120 min (C57BL6/J mice; Week 11): 266.8 mg/dL and 266.8 (±32.1) mg/dL
- peak glucose level (C57BL6/J mice): 513.6 mg/dL
- time at which peak glucose level occurred (C57BL6/J mice): 30 min

SMILES: COc1cc(O)c(CC=C(C)C)c(O)c1C(=O)/C=C/c1ccc(O)cc1 [XN, xanthohumol]
- cell viability after one hour of exposure (C2C12 cells): did not significantly affect cell viability
- concentration at which cell viability was decreased (C2C12 cells): 50 µM
- cellular uptake (of total amount of compound applied to cells) (C2C12 mouse myocytes): approximately 6.6%
- insulin sensitivity in the GTT compared to control (vehicle-diet) mice (C57BL6/J mice): improved insulin sensitivity
- Mean Plasma Glucose Level 0 Min (C57BL6/J mice; Week 4): 283.4 (±4.6) mg/dL
- Mean Plasma Glucose Level 15 min (C57BL6/J mice; Week 4): 508.8 (±28.3) mg/dL
- Mean Plasma Glucose Level 30 min (C57BL6/J mice; Week 4): 456.0 (±41.5) mg/dL
- Mean Plasma Glucose Level 60 min (C57BL6/J mice; Week 4): 389.6 (±29.8) mg/dL
- Mean Plasma Glucose Level 120 min (C57BL6/J mice; Week 4): 167.0 (±3.8) mg/dL
- peak glucose level (group average) (C57BL6/J mice): 508.8 mg/dL
- time at which peak glucose level was reached (C57BL6/J mice): 15 min
- Mean Plasma Glucose Level 0 Min (C57BL6/J mice; Week 11): 193.2 (±21.9) mg/dL
- Mean Plasma Glucose Level 15 min (C57BL6/J mice; Week 11): 465.0 (±30.0) mg/dL
- Mean Plasma Glucose Level 30 min (C57BL6/J mice; Week 11): 452.0 (±41.6) mg/dL
- Mean Plasma Glucose Level 60 min (C57BL6/J mice; Week 11): 463.8 (±52.2) mg/dL
- Mean Plasma Glucose Level 120 min (C57BL6/J mice; Week 11): 373.4 mg/dL and 373.4 (±58.1) mg/dL
- peak glucose level (C57BL6/J mice): 465.0 mg/dL
- time at which peak glucose level occurred (C57BL6/J mice): 15 min
